Reference: PubChem BioAssay AID1963860 (Molecular Pharmacology Branch, DTP, NCI, 2024)

Tested on: CN0375-F725-PDC KRAS spheroid viability
Test: Anticancer human tumor CN0375-F725-PDC patient-derived colon carcinoma cell line growth inhibition [KRAS2]
Conditions: spheroids with HUVEC and MSC; for IC50: curve of first compound; for viability, T/C: stronger effect = lower value
Source text: Multicellular complex tumor spheroid response to RAS pathway inhibitors in combination with a targeted agents in patient-derived cell lines with oncogenic KRAS variants from multiple cancer types
A high-throughput screen of multi-cell type tumor spheroids was designed to identify active combinations of targeted small molecules and KRAS pathway inhibitors. Complex spheroids include a stromal component modeled by human endothelial cells (HUVEC) and fibroblasts modeled by human mesenchymal stem cells (MSCs). The concentration ranges selected for each drug and investigational agent were based upon clinically achievable concentrations if the clinical Cmax of the agent was known.
Compounds. The drugs and investigational agents: BI-3406 (NSC825286), BAY-293 (NSC824723), batoprotafib (TNO155; NSC825523), sotorasib (AMG 510; NSC818433), MRTX1257 (NSC819558), elimusertib (BAY 1895344; NSC800525), molibresib (GSK525762; NSC774829), temuterkib (LY3214996; NSC803410), venetoclax (NSC766270), alisertib (NSC759677), olaparib (NSC753686), talazoparib (NSC767125), erdafitinib (NSC781556), ipatasertib (NSC767898), cabozantinib (NSC761068), nintedanib (NSC756659), abemaciclib (NSC768073), docetaxel (NSC628503), trametinib (NSC758246), and sapanisertib (NSC764658) were obtained from the National Cancer Institute (NCI) Developmental Therapeutics Program Chemical Repository. The FDA-approved anticancer drug set is available from the Developmental Therapeutics Program. […] The stock solutions were prepared in dimethyl sulfoxide (DMSO, Sigma-Aldrich, St. Louis, MO, cat. D2650) at 800-fold the tested concentration and stored at -70 degrees C prior to their use. All drugs and investigational agents were tested over a range starting from a high concentration at or near the clinical Cmax and decreasing in half-log increments. If the clinical Cmax for an agent had not been determined, the highest concentration tested was 10 microM.
Cell Culture. All cells were maintained in an incubator at 37 degrees C and 5% CO2 with 95% humidity. The PDC lines were cultured according to standard operating procedures established by the NCI PDMR (https://pdmr.cancer.gov/sops/default.htm). Briefly, all PDCs were thawed and cultured in Matrigel-coated flasks prepared with a working solution of 1X Ham's F-12 nutrient mix, without supplementation (Invitrogen, Waltham, MA, cat. 11765054), 100 U/mL penicillin-streptomycin (Invitrogen, cat. 15140122), and 2.5% Matrigel (Corning Inc., Corning, NY, cat. 354248) for the first three passages. All PDCs were cultured in complete DMEM/F-12 media containing advanced DMEM/F-12 (Invitrogen, cat. 12634028), 4.9% defined fetal bovine serum, heat inactivated (HyClone Laboratories Inc., Logan, UT, cat. SH30070.03HI), 389 ng/mL hydrocortisone (Sigma-Aldrich, cat. H4001), 9.7 ng/mL human EGF recombinant protein (Invitrogen, cat. PHG0313), 23.4 microg/mL adenine (Sigma-Aldrich, cat. A2786), 97.3 U/mL penicillin-streptomycin (Invitrogen, cat. 15140122), 1.9 mM L-glutamine (Invitrogen, cat. 25030081), and 9.7 microM Y-27632 dihydrochloride (Tocris Bioscience, Bristol, United Kingdom, cat. 1254). The PDCs were cultured in complete DMEM/F12 media without 9.7 microM Y-27632 dihydrochloride for at least two passages prior to the screen. The established cell line HOP-62 was cultured in RPMI 1640 medium, HEPES (Invitrogen, cat. 22400105) with 10% defined fetal bovine serum (HyClone Laboratories Inc., cat. SH30070.03) and 2 mM L-glutamine (Invitrogen, cat. 25030081). The pooled donor HUVEC were cultured in endothelial cell growth medium 2 (PromoCell, Heidelberg, Germany, cat. C-22011) and the hMSC were cultured in mesenchymal stem cell growth medium 2 (PromoCell, cat. C-28009). For all experiments, HUVEC and hMSC were used at passages </=5, while the malignant cell lines were used at passages </=15. […]

[1] = second compound 0.1 µM, first compound 0.0316 µM
[2] = second compound 0.1 µM, first compound 0.1 µM
[3] = second compound 0.1 µM, first compound 0.316 µM
[4] = second compound 0.1 µM, first compound 1 µM
[5] = second compound 0.1 µM, first compound 3.16 µM
[6] = second compound 0.316 µM, first compound 0.0316 µM
[7] = second compound 0.316 µM, first compound 0.1 µM
[8] = second compound 0.316 µM, first compound 0.316 µM
[9] = second compound 0.316 µM, first compound 1 µM
[10] = second compound 0.316 µM, first compound 3.16 µM
[11] = second compound 1 µM, first compound 0.0316 µM
[12] = second compound 1 µM, first compound 0.1 µM
[13] = second compound 1 µM, first compound 0.316 µM
[14] = second compound 1 µM, first compound 1 µM
[15] = second compound 1 µM, first compound 3.16 µM
[16] = second compound 3.16 µM, first compound 0.0316 µM
[17] = second compound 3.16 µM, first compound 0.1 µM
[18] = second compound 3.16 µM, first compound 0.316 µM
[19] = second compound 3.16 µM, first compound 1 µM
[20] = second compound 3.16 µM, first compound 3.16 µM
[21] = second compound 10 µM, first compound 0.0316 µM
[22] = second compound 10 µM, first compound 0.1 µM
[23] = second compound 10 µM, first compound 0.316 µM
[24] = second compound 10 µM, first compound 1 µM
[25] = second compound 10 µM, first compound 3.16 µM
[26] = second compound 0.1 µM, first compound 0.01 µM
[27] = second compound 0.316 µM, first compound 0.01 µM
[28] = second compound 1 µM, first compound 0.01 µM
[29] = second compound 3.16 µM, first compound 0.01 µM
[30] = second compound 10 µM, first compound 0.01 µM
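Note: spheroids exposed to agents for 7 days.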

Structure (SMILES) | IC50 (second compound 0.1 µM) [nM] | IC50 (second compound 0.316 µM) [nM] | IC50 (second compound 1 µM) [nM] | IC50 (second compound 3.16 µM) [nM] | IC50 (second compound 10 µM) [nM] | viability, T/C [1] [%] | viability, T/C [2] [%] | viability, T/C [3] [%] | viability, T/C [4] [%] | viability, T/C [5] [%] | viability, T/C [6] [%] | viability, T/C [7] [%] | viability, T/C [8] [%] | viability, T/C [9] [%] | viability, T/C [11] [%] | viability, T/C [12] [%] | viability, T/C [16] [%] | viability, T/C [17] [%] | viability, T/C [21] [%] | viability, T/C [22] [%] | further results
COC(=O)c1ccc2c(C(=Nc3ccc(N(C)C(=O)CN4CCN(C)CC4)cc3)c3ccccc3)c(O)[nH]c2c1 + COc1cc2nc(C)nc(NC(C)c3cc(N)cc(C(F)(F)F)c3)c2cc1OC1CCOC1 | 2140 | 3580 | 2400 | 1460 | < 31.6 | 97 | 102 | 91.3 | 87.1 | 31.2 | 97.9 | 99.5 | 86.3 | 85.3 | 91.8 | 91.5 | 85.8 | 78.8 | 18.3 | 18.9 | viability, T/C (second compound 0.1 µM, first compound 10 µM): 0.21%; viability, T/C [10]: 55.4%; viability, T/C (second compound 0.316 µM, first compound 10 µM): 0.5%; viability, T/C [13]: 85%; viability, T/C [14]: 77%; viability, T/C [15]: 41.6%; viability, T/C (second compound 1 µM, first compound 10 µM): 0.19%; viability, T/C [18]: 80.6%; viability, T/C [19]: 66.8%; viability, T/C [20]: 16.1%; viability, T/C (second compound 3.16 µM, first compound 10 µM): 0.48%; viability, T/C [23]: 13.1%; viability, T/C [24]: 9.52%; viability, T/C [25]: 1.91%; viability, T/C (second compound 10 µM, first compound 10 µM): 0.15%
CC(=O)OC12COC1CC(O)C1(C)C(=O)C(O)C3=C(C)C(OC(=O)C(O)C(NC(=O)OC(C)(C)C)c4ccccc4)CC(O)(C(OC(=O)c4ccccc4)C21)C3(C)C (stereo not given) + C=CC(=O)N1CCN(c2nc(=O)n(-c3c(C)ccnc3C(C)C)c3nc(-c4c(O)cccc4F)c(F)cc23)C(C)C1 | > 3160 | > 3160 | > 3160 | > 3160 | > 3160 | 97.4 | 88.5 | 86.6 | 86.5 | 76.8 | 97.8 | 94.4 | 93.1 | 85.7 | 98.2 | 91.8 | 93.8 | 90.5 | 92.5 | 88.1 | viability, T/C [26]: 100%; viability, T/C [27]: 99.8%; viability, T/C [10]: 81.7%; viability, T/C [28]: 96.6%; viability, T/C [13]: 87.1%; viability, T/C [14]: 88%; viability, T/C [15]: 80%; viability, T/C [29]: 97.8%; viability, T/C [18]: 88.2%; viability, T/C [19]: 86.1%; viability, T/C [20]: 89.5%; viability, T/C [30]: 93.8%; viability, T/C [23]: 84.9%; viability, T/C [24]: 74.8%; viability, T/C [25]: 79.9%
Cn1ncnc1[C@H]1c2n[nH]c(=O)c3cc(F)cc(c23)N[C@@H]1c1ccc(F)cc1 + COc1cc2nc(C)nc(NC(C)c3cc(N)cc(C(F)(F)F)c3)c2cc1OC1CCOC1 | > 100 | > 100 | > 100 | > 100 | < 0.316 | 98 | 94.9 | – | – | – | 96.4 | 93.1 | – | – | 88.8 | 86.4 | 79.4 | 76.8 | 5.32 | 10.4 | viability, T/C (second compound 0.1 µM, first compound 0.000316 µM): 103%; viability, T/C (second compound 0.1 µM, first compound 0.001 µM): 98.8%; viability, T/C (second compound 0.1 µM, first compound 0.00316 µM): 96.7%; viability, T/C [26]: 97.9%; viability, T/C (second compound 0.316 µM, first compound 0.000316 µM): 97.2%; viability, T/C (second compound 0.316 µM, first compound 0.001 µM): 104%; viability, T/C (second compound 0.316 µM, first compound 0.00316 µM): 94.2%; viability, T/C [27]: 92.5%; viability, T/C (second compound 1 µM, first compound 0.000316 µM): 97.7%; viability, T/C (second compound 1 µM, first compound 0.001 µM): 105%; viability, T/C (second compound 1 µM, first compound 0.00316 µM): 86.9%; viability, T/C [28]: 86.7%; viability, T/C (second compound 3.16 µM, first compound 0.000316 µM): 88.6%; viability, T/C (second compound 3.16 µM, first compound 0.001 µM): 94%; viability, T/C (second compound 3.16 µM, first compound 0.00316 µM): 84.1%; viability, T/C [29]: 76.8%; viability, T/C (second compound 10 µM, first compound 0.000316 µM): 11.7%; viability, T/C (second compound 10 µM, first compound 0.001 µM): 14%; viability, T/C (second compound 10 µM, first compound 0.00316 µM): 6.8%; viability, T/C [30]: 13.3%
